The assay deals with sepsis patients. Nature of the assay: treatment course of sepsis in blood culture positive patients. To be noted: observation for 1 year; for Cured / Deaths: number of cases, Bio3 1 g 3 times a day where given. In kind it is in vivo, human. The procedure:
The sepsis treatment agent was administered 3 times a day at 1 g each time using a live bacteria formulation of a mix of the three bacteria. The patients were hospitalized in a psychiatric hospital. The patients were blood culture positive which is a predictor for bacterial translocation. In 4 cases, imipenem/cilastatin (IPM/CS) was administered, and in 4 cases, latamoxef (LMOX) was given. During the observation period, CRP (C reactive protein) increased slightly, and E. coli and enterococcus and the like were detected by culturing blood. After observation for 1 year, two cases died from both groups, and two cases were cured.

In the case of `C[C@@H](O)[C@H]1C(=O)N2C(C(=O)O)=C(SCCN=CN)C[C@H]12` [Imipenem, imipenem/cilastatin], the Cured is 2, the Deaths is 2 and the “death rate (%)” value was found to be 50%.
Regarding `CO[C@@]1(NC(=O)C(C(=O)O)c2ccc(O)cc2)C(=O)N2C(C(=O)O)=C(CSc3nnnn3C)CO[C@@H]21` (some centres unmarked) [Latamoxef, latamoxef], the Cured worked out at 2, the Deaths was 2 and the “death rate (%)” value was 50%. For the same compound, for the setting “listed as latamoxef”, the Cured entry is listed as “two” and the Deaths result is listed as “two”.

(Values after patent publication US20090010891A1, “Sepsis Treatment Agent” (Toa Pharmaceutical Co., Ltd., priority 2007, published 2009).)
